“Also recorded” adds a separate entry of the source. Where two headings read alike, the source gives them in different places. Ends that are not written are not given here.
Columns and labels:
intact heart, ex vivo [1] = assay: Ex vivo cardiac protection, ischemia and reperfusion in Langendorff-perfused hearts (TTC staining, CPK release); set-up: species or system Wistar rats
εPKC [2] = assay: εPKC translocation from the soluble to the particulate fraction in CHO cells (immunoblot); type: cell-based; details: for εPKC translocation in cells: 500 nM peptide for 15 minutes before sub-maximal 3 nM PMA, relative to control
Method: Upon activation, PKC translocates from the soluble to the particulate cell fraction, which translocation can be monitored by immunoblot analysis (26). It was previously determined that the effect of peptides on PKC translocation is better observed when the cells are treated with a sub-maximal concentration of PMA (22,42). Larger concentrations of PMA, a non-physiological activator, stimulate a greater degree of PKC translocation over translocation stimulated by peptide activators alone (51).
A representative activator (peptide 2) or inhibitor (peptide 7) were preincubated at 500 nM for 15 minutes with cells before sub-optimal stimulation with 3 nM PMA for 7 minutes.
PKC Translocation in Cells—εPKC translocation from the soluble to the particulate fraction in CHO cells was used to assess the relative amount of activated (membrane-bound) εPKC, an assay that has been described previously (42). Evidence of translocation is either by an increase in the amount of PKC in the particulate fraction or by a decrease in the soluble fraction. Briefly, after stimulation, cells were washed with cold PBS, scraped in homogenization buffer, passed through a (25G⅝″) syringe needle, and spun at 100,000 g for 30 min at 4° C. The pellet was then resuspended in homogenization buffer with 1% Triton X-100. Where applicable, the cells were pre-incubated with 500 nM peptide for 15 minutes prior to stimulation. PKC was stimulated with sub-maximal levels of the general PKC activator phorbol 12-myristate 13-acetate (PMA, 3 nM). The samples were then analyzed by Western blot. Antibodies against εPKC were obtained from Santa Cruz Biotechnology (Santa Cruz, Calif.) and used at 1:500 dilution.

PKC [3] = assay: MARCKS phosphorylation in primary skeletal muscle cells from εPKC knockout mice (Western blot); details: primary mouse muscle cells from εPKC knock-out mice; 1 μM peptide for 15 minutes
εPKC [4] = target: T1, εPKC (Mus musculus, UniProt P16054); assay: In vivo PKC translocation in hearts after intraperitoneal injection (immunoblot); set-up: species or system mice; details: for translocation of εPKC in hearts in vivo: particulate fraction of mouse hearts, 15 minutes following IP injection of 20 nmol peptide, relative to control TAT peptide
T1 construct: from tissue; host or cells: mouse heart
T1 sequence (P16054 1-737): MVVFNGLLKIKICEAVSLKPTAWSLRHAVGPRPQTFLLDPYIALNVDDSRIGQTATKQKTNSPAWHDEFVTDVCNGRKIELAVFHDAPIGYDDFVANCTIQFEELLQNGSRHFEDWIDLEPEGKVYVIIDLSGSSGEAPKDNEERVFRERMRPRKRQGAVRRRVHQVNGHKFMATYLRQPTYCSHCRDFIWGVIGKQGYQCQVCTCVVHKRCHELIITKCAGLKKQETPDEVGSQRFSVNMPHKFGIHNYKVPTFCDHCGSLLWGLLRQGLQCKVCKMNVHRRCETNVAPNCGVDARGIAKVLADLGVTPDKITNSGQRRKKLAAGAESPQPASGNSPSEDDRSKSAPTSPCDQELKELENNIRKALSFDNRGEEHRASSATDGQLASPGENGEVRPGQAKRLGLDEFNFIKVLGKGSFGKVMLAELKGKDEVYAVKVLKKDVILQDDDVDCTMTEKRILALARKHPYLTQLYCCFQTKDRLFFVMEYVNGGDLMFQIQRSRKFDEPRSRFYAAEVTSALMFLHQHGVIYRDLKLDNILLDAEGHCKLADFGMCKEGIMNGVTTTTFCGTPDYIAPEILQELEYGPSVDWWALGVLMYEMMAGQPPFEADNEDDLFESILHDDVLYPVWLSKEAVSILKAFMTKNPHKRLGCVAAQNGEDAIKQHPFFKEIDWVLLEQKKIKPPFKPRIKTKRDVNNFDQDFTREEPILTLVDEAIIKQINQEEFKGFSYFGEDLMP
Method: (§1) In a further in vivo study, peptide activity and selectivity were examined using representative peptides injected into mice via intraperitoneal (IP) injection, and the amount of εPKC, δPKC, αPKC, and ζPKC translocation in hearts was determined. These four PKC isozymes represent each of the three major sub-families of PKC. In particular, εPKC and δPKC are members of the novel PKC family (calcium insensitive, diacylglycerol sensitive), αPKC is a classical PKC (calcium and diacylglycerol sensitive), and ζPKC is an atypical PKC (calcium and diacylglycerol insensitive).
(§2) Levels of εPKC, δPKC, αPKC, and ζPKC in the particulate fraction of mouse hearts were assayed by immunoblot 15 minutes following IP injection of 20 nmol each peptides (FIGS. 5A-5D). The accompanying graphs show quantitation based on two experiments, calculated as fold increase (+/−standard error) in the particulate fraction/total fraction, normalized to the actin loading control, and relative to the control TAT peptide. […] Since peptides 11 and 13 caused MARCKS phosphorylation in myocytes from the εPKC knockout mice (FIG. 3), it is concluded that they activated several PKC isozymes.
(§3) Isozyme Selectivity In Vivo—To determine that activator peptides causing MARCKS phosphorylation and decreasing ischemia-reperfusion damage in heart also induce εPKC translocation in vivo, we injected the respective peptides at 20 nmol in 200 μl saline into the peritoneum of 15-20 g mice, as previously reported (48). Fifteen minutes later, the mice were sacrificed and heart and brain were collected. Soluble and particulate fractions from mouse tissue were prepared as previously described (48). ε, ζ and δPKC translocation were determined by Western blot analysis using selective anti-PKC antibodies from Santa Cruz Biotechnology, Santa Cruz, Calif. and used at 1:500 dilution. Sarcomeric actin (1:1000, Sigma) was used as a loading control for all fractions.

intact heart, ex vivo [5] = details: pre-treatment, Langendorff apparatus; refs (4,43); cited from earlier work
PKC [6] = details: primary mouse muscle cells, wild-type; 1 μM peptide for 15 or 30 minutes prior to cell lysis
δPKC = target: T2, δPKC (Mus musculus, UniProt P28867); assay: In vivo PKC translocation in hearts after intraperitoneal injection (immunoblot); set-up: species or system mice; details: particulate fraction of mouse hearts, 15 minutes following IP injection of 20 nmol peptide; relative to control TAT peptide
T2 construct: from tissue; host or cells: mouse heart
Method: as §1, §2, §3

ηPKC = details: ηPKC-derived peptides; Ref. (1, 63); cited from earlier work
[7] = 1 μM TAT-conjugated peptide 10 minutes prior to 40 minutes global ischemia, 60 minutes reperfusion (peptide 9: 30 minutes ischemia), † and ‡ = trend towards cardioprotective (n = 5, n = 3)

Sequence of ηPKC (P24723 whole entry, the tested form may be a part): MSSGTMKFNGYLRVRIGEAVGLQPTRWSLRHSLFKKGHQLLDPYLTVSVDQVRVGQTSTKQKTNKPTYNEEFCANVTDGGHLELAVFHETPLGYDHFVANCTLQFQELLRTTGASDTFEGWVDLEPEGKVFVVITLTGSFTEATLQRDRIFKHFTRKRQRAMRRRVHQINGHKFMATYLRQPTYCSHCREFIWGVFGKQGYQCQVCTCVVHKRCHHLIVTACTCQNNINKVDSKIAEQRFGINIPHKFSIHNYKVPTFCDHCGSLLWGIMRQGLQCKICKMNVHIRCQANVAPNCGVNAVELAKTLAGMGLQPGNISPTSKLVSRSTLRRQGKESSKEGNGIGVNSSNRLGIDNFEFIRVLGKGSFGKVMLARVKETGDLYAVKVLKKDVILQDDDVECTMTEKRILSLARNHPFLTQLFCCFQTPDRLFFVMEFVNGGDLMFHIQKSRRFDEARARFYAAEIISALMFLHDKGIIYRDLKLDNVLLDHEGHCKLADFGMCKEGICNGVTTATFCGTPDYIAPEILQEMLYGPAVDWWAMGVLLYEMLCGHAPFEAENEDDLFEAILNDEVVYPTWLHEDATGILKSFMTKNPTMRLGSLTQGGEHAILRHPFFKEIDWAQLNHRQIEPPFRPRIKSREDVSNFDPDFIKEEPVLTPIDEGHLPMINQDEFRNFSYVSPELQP
T2 sequence (P28867 whole entry): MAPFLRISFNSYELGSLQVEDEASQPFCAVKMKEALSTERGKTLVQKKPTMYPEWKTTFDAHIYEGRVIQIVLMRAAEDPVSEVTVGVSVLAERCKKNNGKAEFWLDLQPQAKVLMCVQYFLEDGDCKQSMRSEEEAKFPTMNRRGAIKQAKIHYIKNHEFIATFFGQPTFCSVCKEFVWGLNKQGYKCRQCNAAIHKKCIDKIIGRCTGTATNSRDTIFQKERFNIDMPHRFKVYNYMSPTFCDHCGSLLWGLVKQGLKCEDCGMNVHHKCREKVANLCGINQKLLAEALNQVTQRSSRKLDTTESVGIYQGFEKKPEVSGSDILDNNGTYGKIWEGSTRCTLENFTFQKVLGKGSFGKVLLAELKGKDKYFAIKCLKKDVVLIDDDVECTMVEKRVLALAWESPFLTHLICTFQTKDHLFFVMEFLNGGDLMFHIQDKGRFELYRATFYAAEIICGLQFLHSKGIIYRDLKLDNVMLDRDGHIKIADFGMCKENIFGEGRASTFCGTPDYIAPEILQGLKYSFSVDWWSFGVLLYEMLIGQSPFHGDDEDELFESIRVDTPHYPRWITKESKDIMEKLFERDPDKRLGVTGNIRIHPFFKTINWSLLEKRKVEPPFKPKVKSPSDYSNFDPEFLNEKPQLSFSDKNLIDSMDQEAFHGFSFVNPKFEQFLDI

Substance: CAVGPRPQT (not fully specified (residue 1)) [Peptide 2]
- Cardioprotective ex vivo (intact heart, ex vivo [1]; [7]): cardioprotective and yes
- increase in the amount of εPKC translocation compared to pre-treatment with the TAT control peptide (εPKC [2]; 500 nM peptide 15 minutes, then 3 nM PMA 7 minutes, n=5, p<0.05): approximately 30%
- εPKC translocation in cells (εPKC [2]): activator
- MARCKS phosphorylation in εKO Cells (PKC [3]): not in KO; also recorded: no effect

Substance: CEAVSLKPT [εV1-2, reference compound]
- Cardioprotective ex vivo (intact heart, ex vivo [1]; [7]): no
- εPKC translocation in cells (εPKC [2]): decrease in the amount of εPKC in the pellet fraction; also recorded: inhibitor
- MARCKS phosphorylation in εKO Cells (PKC [3]): no effect

Substance: CEFVTDV [Peptide 8]
- Cardioprotective ex vivo (intact heart, ex vivo [1]): not cardioprotective and no
- εPKC translocation in cells (εPKC [2]): activator
- MARCKS phosphorylation in εKO Cells (PKC [3]): not conclusive

Substance: CFLLDPY [Peptide 3]
- Cardioprotective ex vivo (intact heart, ex vivo [1]): trend towards cardioprotection and yes‡
- εPKC translocation in cells (εPKC [2]): activator
- MARCKS phosphorylation in εKO Cells (PKC [3]): not in KO; also recorded: no effect

Substance: CFNGLLKIKI (not fully specified (residue 1)) [Peptide 1]
- Cardioprotective ex vivo (intact heart, ex vivo [1]; [7]): trend towards cardioprotection and yes†
- εPKC translocation in cells (εPKC [2]): activator
- MARCKS phosphorylation in εKO Cells (PKC [3]): not in KO; also recorded: no effect
- translocation of εPKC in hearts in vivo (εPKC [4]): caused translocation of εPKC

Substance: CHDAPIGYD [ψεRACK, reference compound]
- Cardioprotective ex vivo (intact heart, ex vivo [1]; [7]): cardioprotective and yes
- εPKC translocation in cells (εPKC [2]): activator
- MARCKS phosphorylation in εKO Cells (PKC [3]): not in KO; also recorded: no effect
- translocation of εPKC in hearts in vivo (εPKC [4]): caused translocation of εPKC
- damage (infarction) of hearts subjected to ischemia and reperfusion ex vivo (intact heart, ex vivo [5]): reduced damage

Substance: CIELAVF [Peptide 10]
- MARCKS phosphorylation in WT Cells (PKC [6]): activator
- Cardioprotective ex vivo (intact heart, ex vivo [1]): no
- εPKC translocation in cells (εPKC [2]): activator
- MARCKS phosphorylation in εKO Cells (PKC [3]): not conclusive

Substance: CLEPEGK [Peptide 12]
- εPKC translocation in cells (εPKC [2]): decrease in the amount of εPKC in the pellet fraction; also recorded: inhibitor

Substance: CLSETKPAV (not fully specified; also: TAT47-57 conjugated) [scrambled εV1-2, reference compound]
- Cardioprotective ex vivo (intact heart, ex vivo [1]): not cardioprotective and no
- εPKC translocation in cells (εPKC [2]): stimulated εPKC translocation; also recorded: activator
- MARCKS phosphorylation in εKO Cells (PKC [3]): no effect
- translocation of δPKC in hearts in vivo (δPKC): did not cause an increase
- PKC translocation, in vivo (εPKC [4]; mouse hearts, 15 minutes after IP injection of 20 nmol peptide, the cell words say which of ε, δ, α, ζPKC translocate): no
- translocation of εPKC in hearts in vivo (εPKC [4]): did not cause an increase

Substance: CNGRKI (not fully specified; also: TAT47-57 carrier linked via Cys disulfide) [Peptide 9]
- Cardioprotective ex vivo (intact heart, ex vivo [1]): cardioprotective and yes
- εPKC translocation in cells (εPKC [2]): activator
- MARCKS phosphorylation in εKO Cells (PKC [3]): not in KO; also recorded: no effect

Substance: CPAWHD [Peptide 7]
- Cardioprotective ex vivo (intact heart, ex vivo [1]): no
- decrease in the amount of translocated εPKC compared to pre-treatment with the TAT control peptide (εPKC [2]; 500 nM peptide 15 minutes, then 3 nM PMA 7 minutes, n=3, p<0.01): approximately 50%
- εPKC translocation in cells (εPKC [2]): decrease in the amount of εPKC in the pellet fraction; also recorded: inhibitor

Substance: CPDYHDAGI (not fully specified; also: TAT47-57 conjugated) [scrambled ψεRACK, reference compound]
- MARCKS phosphorylation in WT Cells (PKC [6]): No change
- Cardioprotective ex vivo (intact heart, ex vivo [1]): not cardioprotective and no

Substance: CPYIALNVD (not fully specified (residue 1)) [Peptide 4]
- εPKC translocation in cells (εPKC [2]): decrease in the amount of εPKC in the pellet fraction; also recorded: inhibitor

Substance: CSRIGQ [Peptide 5]
- Cardioprotective ex vivo (intact heart, ex vivo [1]): cardioprotective and yes
- εPKC translocation in cells (εPKC [2]): activator
- MARCKS phosphorylation in εKO Cells (PKC [3]): not in KO; also recorded: no effect
- translocation of εPKC in hearts in vivo (εPKC [4]): caused translocation of εPKC

Substance: CTATKQKT (not fully specified; also: TAT47-57 carrier linked via Cys disulfide) [Peptide 6]
- MARCKS phosphorylation in WT Cells (PKC [6]): activator
- Cardioprotective ex vivo (intact heart, ex vivo [1]): cardioprotective and yes
- εPKC translocation in cells (εPKC [2]): activator
- MARCKS phosphorylation in εKO Cells (PKC [3]): weak activator

Substance: CVYVIIDL (not fully specified (residue 1)) [Peptide 13]
- Cardioprotective ex vivo (intact heart, ex vivo [1]): not cardioprotective and no
- εPKC translocation in cells (εPKC [2]): activator
- MARCKS phosphorylation in εKO Cells (PKC [3]): increased MARCKS phosphorylation; also recorded: activator

Substance: CYGRKKRRQRRR (TAT carrier peptide with N-terminal cysteine) [reference compound]
- MARCKS phosphorylation in WT Cells (PKC [6]): no effect
- Cardioprotective ex vivo (intact heart, ex vivo [1]; [7]): no
- Cardioprotective ex vivo (intact heart, ex vivo [1]; 1 μM TAT-conjugated peptide 10 minutes prior to 40 minutes global ischemia, 60 minutes reperfusion (peptide 9: 30 minutes ischemia), † and ‡ = trend towards cardioprotective (n = 5, n = 3), listed as TAT): not cardioprotective
- εPKC translocation in cells (εPKC [2]): no effect
- MARCKS phosphorylation in εKO Cells (PKC [3]): no effect

Substance: EAVGLQPT (peptide derived from eta PKC)
- Activity (known PKC-modulating activity) (ηPKC): inhibitor

Substance: HETPLGYD (peptide derived from eta PKC)
- Activity (known PKC-modulating activity) (ηPKC): activator

From patent publication US7851587B2, “Peptides derived from the C2 domain of epsilon PKC” (The Board of Trustees of the Leland Stanford Junior …, priority 2006, dated 2010)
